The supplement of paper PMC10883282

Tests used:
Assay in all cases: relative viability vs DMSO control (72 h) (fraction); higher = more viable cells
G401 = system: G401
Method in brief: (§1)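 Sarcoma cell lines were seeded in 384-well plates at densities chosen for 80–90% confluence, then 24 h later given 2.5 µl of serially diluted compound drawn from source plates spanning 10 mM to 0.0002 mM. They were held 72 h at 37 °C, 5% CO2, with 0.1% DMSO vehicle and a 5 µM positive control included. Relative viability was read with ATPLite as percent growth and averaged over up to triplicate wells. Rescaling placed full at 1 and none at 0.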

KHOS-240S = system: KHOS-240S
Method in brief: as §1

SW1353 = system: SW1353
Method in brief: as §1

SYO-1 = system: SYO-1
Method in brief: as §1

SW982 = system: SW982
Method in brief: as §1

HT1080 = system: HT1080
Method in brief: as §1

KHOS-NP = system: KHOS-NP
Method in brief: as §1

SW872 = system: SW872
Method in brief: as §1

SW684 = system: SW684
Method in brief: as §1

RD-ES = system: RD-ES
Method in brief: as §1

A204 = system: A204
Method in brief: as §1

SK-ES-1 = system: SK-ES-1
Method in brief: as §1

CS(=O)(=O)CCNCc1ccc(-c2ccc3ncnc(Nc4ccc(OCc5cccc(F)c5)c(Cl)c4)c3c2)o1 [Lapatinib]
Details	relative viability
A204, 0.00017 µM	1.06
A204, 0.00051 µM	1.07
A204, 0.00152 µM	1.06
A204, 0.00457 µM	1.07
A204, 0.01372 µM	1.06
A204, 0.04115 µM	1.08
A204, 0.1235 µM	1.07
A204, 0.3704 µM	1.09
A204, 1.111 µM	1.05
A204, 3.333 µM	0.701
A204, 10 µM	0.0212
G401, 0.00017 µM	1.01
G401, 0.00051 µM	1.01
G401, 0.00152 µM	1.01
G401, 0.00457 µM	1.01
G401, 0.01372 µM	1.02
G401, 0.04115 µM	1.04
G401, 0.1235 µM	1.01
G401, 0.3704 µM	0.966
G401, 1.111 µM	1.02
G401, 3.333 µM	1.01
G401, 10 µM	0.789
HT1080, 0.00017 µM	1.04
HT1080, 0.00051 µM	1.035
HT1080, 0.00152 µM	1.04
HT1080, 0.00457 µM	1.05
HT1080, 0.01372 µM	1.07
HT1080, 0.04115 µM	1.04
HT1080, 0.1235 µM	1.04
HT1080, 0.3704 µM	1.059
HT1080, 1.111 µM	1.1
HT1080, 3.333 µM	1.09
HT1080, 10 µM	0.674
KHOS-240S, 0.00017 µM	1.04
KHOS-240S, 0.00051 µM	1.05
KHOS-240S, 0.00152 µM	1.07
KHOS-240S, 0.00457 µM	1.06
KHOS-240S, 0.01372 µM	1.09
KHOS-240S, 0.04115 µM	1.09
KHOS-240S, 0.1235 µM	1.07
KHOS-240S, 0.3704 µM	1.09
KHOS-240S, 1.111 µM	1.08
KHOS-240S, 3.333 µM	0.65
KHOS-240S, 10 µM	0.345
KHOS-NP, 0.00017 µM	1.059
KHOS-NP, 0.00051 µM	1.055
KHOS-NP, 0.00152 µM	1.05
KHOS-NP, 0.00457 µM	1.07
KHOS-NP, 0.01372 µM	1.055
KHOS-NP, 0.04115 µM	1.053
KHOS-NP, 0.1235 µM	1.06
KHOS-NP, 0.3704 µM	1.1
KHOS-NP, 1.111 µM	1.07
KHOS-NP, 3.333 µM	1.02
KHOS-NP, 10 µM	0.93
RD-ES, 0.00017 µM	0.951
RD-ES, 0.00051 µM	0.948
RD-ES, 0.00152 µM	0.954
RD-ES, 0.00457 µM	0.958
RD-ES, 0.01372 µM	0.963
RD-ES, 0.04115 µM	0.964
RD-ES, 0.1235 µM	0.97
RD-ES, 0.3704 µM	0.977
RD-ES, 1.111 µM	0.951
RD-ES, 3.333 µM	0.931
RD-ES, 10 µM	0.909
SK-ES-1, 0.00017 µM	1.05
SK-ES-1, 0.00051 µM	1.04
SK-ES-1, 0.00152 µM	1.02
SK-ES-1, 0.00457 µM	0.98
SK-ES-1, 0.01372 µM	1.06
SK-ES-1, 0.04115 µM	0.985
SK-ES-1, 0.1235 µM	1.02
SK-ES-1, 0.3704 µM	1.02
SK-ES-1, 1.111 µM	0.983
SK-ES-1, 3.333 µM	0.772
SK-ES-1, 10 µM	0.0529
SW684, 0.00017 µM	1.15
SW684, 0.00051 µM	1.13
SW684, 0.00152 µM	1.14
SW684, 0.00457 µM	1.13
SW684, 0.01372 µM	1.13
SW684, 0.04115 µM	1.17
SW684, 0.1235 µM	1.15
SW684, 0.3704 µM	1.14
SW684, 1.111 µM	1.19
SW684, 3.333 µM	1.15
SW684, 10 µM	0.707
SW872, 0.00017 µM	1.03
SW872, 0.00051 µM	1.03
SW872, 0.00152 µM	1.03
SW872, 0.00457 µM	1.02
SW872, 0.01372 µM	1.01
SW872, 0.04115 µM	1.05
SW872, 0.1235 µM	1.05
SW872, 0.3704 µM	1.05
SW872, 1.111 µM	1.04
SW872, 3.333 µM	0.895
SW872, 10 µM	0.0477
SW982, 0.00017 µM	1.04
SW982, 0.00051 µM	1.04
SW982, 0.00152 µM	1.06
SW982, 0.00457 µM	1.03
SW982, 0.01372 µM	1.05
SW982, 0.04115 µM	1.06
SW982, 0.1235 µM	1.07
SW982, 0.3704 µM	1.09
SW982, 1.111 µM	1.09
SW982, 3.333 µM	0.968
SW982, 10 µM	0.0107
SW1353, 0.00017 µM	0.964
SW1353, 0.00051 µM	0.962
SW1353, 0.00152 µM	0.948
SW1353, 0.00457 µM	0.954
SW1353, 0.01372 µM	0.932
SW1353, 0.04115 µM	0.905
SW1353, 0.1235 µM	0.906
SW1353, 0.3704 µM	0.85
SW1353, 1.111 µM	0.863
SW1353, 3.333 µM	0.847
SW1353, 10 µM	0.807
SYO-1, 0.00017 µM	0.955
SYO-1, 0.00051 µM	0.93
SYO-1, 0.00152 µM	0.958
SYO-1, 0.00457 µM	0.959
SYO-1, 0.01372 µM	0.936
SYO-1, 0.04115 µM	0.949
SYO-1, 0.1235 µM	0.934
SYO-1, 0.3704 µM	0.944
SYO-1, 1.111 µM	0.912
SYO-1, 3.333 µM	0.637
SYO-1, 10 µM	0.165

COc1cc(N2CCC(N3CCN(C)CC3)CC2)ccc1Nc1ncc(Cl)c(Nc2ccccc2P(C)(C)=O)n1 [Brigatinib]
Details	relative viability
A204, 0.00017 µM	1.06
A204, 0.00051 µM	1.08
A204, 0.00152 µM	1.03
A204, 0.00457 µM	1.06
A204, 0.01372 µM	1.04
A204, 0.04115 µM	1.03
A204, 0.1235 µM	1.06
A204, 0.3704 µM	0.991
A204, 1.111 µM	0.692
A204, 3.333 µM	0.262
A204, 10 µM	0.0135
G401, 0.00017 µM	0.983
G401, 0.00051 µM	0.972
G401, 0.00152 µM	0.9624
G401, 0.00457 µM	0.9721
G401, 0.01372 µM	0.941
G401, 0.04115 µM	0.909
G401, 0.1235 µM	0.923
G401, 0.3704 µM	0.764
G401, 1.111 µM	0.626
G401, 3.333 µM	0.261
G401, 10 µM	0.0657
HT1080, 0.00017 µM	1.01
HT1080, 0.00051 µM	1.03
HT1080, 0.00152 µM	1.02
HT1080, 0.00457 µM	1.01
HT1080, 0.01372 µM	1
HT1080, 0.04115 µM	0.984
HT1080, 0.1235 µM	1.01
HT1080, 0.3704 µM	1.03
HT1080, 1.111 µM	0.93
HT1080, 3.333 µM	0.573
HT1080, 10 µM	0.151
KHOS-240S, 0.00017 µM	1.04
KHOS-240S, 0.00051 µM	1.04
KHOS-240S, 0.00152 µM	1.02
KHOS-240S, 0.00457 µM	1.01
KHOS-240S, 0.01372 µM	0.989
KHOS-240S, 0.04115 µM	0.978
KHOS-240S, 0.1235 µM	0.92
KHOS-240S, 0.3704 µM	0.754
KHOS-240S, 1.111 µM	0.445
KHOS-240S, 3.333 µM	0.0468
KHOS-240S, 10 µM	0.0051
KHOS-NP, 0.00017 µM	1.04
KHOS-NP, 0.00051 µM	1.06
KHOS-NP, 0.00152 µM	1.05
KHOS-NP, 0.00457 µM	1.02
KHOS-NP, 0.01372 µM	1.03
KHOS-NP, 0.04115 µM	1.03
KHOS-NP, 0.1235 µM	0.994
KHOS-NP, 0.3704 µM	0.985
KHOS-NP, 1.111 µM	0.852
KHOS-NP, 3.333 µM	0.534
KHOS-NP, 10 µM	0.21
RD-ES, 0.00017 µM	0.965
RD-ES, 0.00051 µM	0.968
RD-ES, 0.00152 µM	0.955
RD-ES, 0.00457 µM	0.918
RD-ES, 0.01372 µM	0.873
RD-ES, 0.04115 µM	0.839
RD-ES, 0.1235 µM	0.701
RD-ES, 0.3704 µM	0.457
RD-ES, 1.111 µM	0.317
RD-ES, 3.333 µM	0.165
RD-ES, 10 µM	0.0867
SK-ES-1, 0.00017 µM	0.96
SK-ES-1, 0.00051 µM	0.986
SK-ES-1, 0.00152 µM	0.971
SK-ES-1, 0.00457 µM	0.973
SK-ES-1, 0.01372 µM	1
SK-ES-1, 0.04115 µM	0.951
SK-ES-1, 0.1235 µM	0.825
SK-ES-1, 0.3704 µM	0.496
SK-ES-1, 1.111 µM	0.251
SK-ES-1, 3.333 µM	0.0717
SK-ES-1, 10 µM	0.0369
SW684, 0.00017 µM	1.04
SW684, 0.00051 µM	1.05
SW684, 0.00152 µM	1.05
SW684, 0.00457 µM	0.992
SW684, 0.01372 µM	1.06
SW684, 0.04115 µM	1.06
SW684, 0.1235 µM	1.04
SW684, 0.3704 µM	1.02
SW684, 1.111 µM	0.921
SW684, 3.333 µM	0.573
SW684, 10 µM	0.2498
SW872, 0.00017 µM	0.989
SW872, 0.00051 µM	0.969
SW872, 0.00152 µM	0.967
SW872, 0.00457 µM	0.94
SW872, 0.01372 µM	0.926
SW872, 0.04115 µM	0.885
SW872, 0.1235 µM	0.818
SW872, 0.3704 µM	0.626
SW872, 1.111 µM	0.469
SW872, 3.333 µM	0.321
SW872, 10 µM	0.288
SW982, 0.00017 µM	1.03
SW982, 0.00051 µM	1.03
SW982, 0.00152 µM	1.03
SW982, 0.00457 µM	1.01
SW982, 0.01372 µM	0.954
SW982, 0.04115 µM	0.869
SW982, 0.1235 µM	0.695
SW982, 0.3704 µM	0.383
SW982, 1.111 µM	0.122
SW982, 3.333 µM	0.00817
SW982, 10 µM	0.00797
SW1353, 0.00017 µM	0.909
SW1353, 0.00051 µM	0.922
SW1353, 0.00152 µM	0.907
SW1353, 0.00457 µM	0.903
SW1353, 0.01372 µM	0.896
SW1353, 0.04115 µM	0.851
SW1353, 0.1235 µM	0.824
SW1353, 0.3704 µM	0.647
SW1353, 1.111 µM	0.449
SW1353, 3.333 µM	0.147
SW1353, 10 µM	0.0131
SYO-1, 0.00017 µM	0.95
SYO-1, 0.00051 µM	0.952
SYO-1, 0.00152 µM	0.922
SYO-1, 0.00457 µM	0.889
SYO-1, 0.01372 µM	0.846
SYO-1, 0.04115 µM	0.768
SYO-1, 0.1235 µM	0.706
SYO-1, 0.3704 µM	0.501
SYO-1, 1.111 µM	0.239
SYO-1, 3.333 µM	0.0457
SYO-1, 10 µM	-0.0131
